Assay [1] deals with SHSY5Y cell. Briefly: Exposure of SHSY5Y neuroblastoma cells to stimulants: marker enzyme expression and extension of neuron projection. The conditions noted are these: a neuroblastoma from human. In kind it is cell-based. An excerpt: The functions of (1) and (2) are different, but share the same properties in terms of extension of neuron projection. Therefore, cellular components necessary for these two intracellular alteration were specified experimentally by means of RNA interference method. As such, it was obtained that the component collection (3) necessary for the alteration from SHSY5Y to (1) are {JAK1, JAK3, ROR, and RET}. On the other hand, the component collection (4) necessary for the alteration from SHSY5Y cells to (2), are {NTRK1, EPHB2, INSR, RDGFRA, ROR and RET}. When comparing and calculation of intersection is done for (3) and (4), the intersection (5) was obtained to read {ROR and RET}. Next, the collection (6) {JAK1 and JAK3} by subtraction of (3)-(5) and the collection (5) were analyzed in terms of an intermolecular interaction, and the existence of a pathway of a molecular signals from (6) to (5) (FIG. 3A) was determined. Furthermore, the collection (7) which was obtained by the subtraction of (4)-(5), and the collection (5) were analyzed in terms of an intermolecular interaction, and the existence of a pathway of molecular signals from (7) to (5) (FIG. 3B) was further determined. The common components and pathway relating to the projection extension by retinoic acid (RA) and Nerve Growth Factor (NGF) are shown in FIG. 4.

Assay [2] concerns SK-BR-3. The note with it: breast cancer cell SK-BR-3; stated as known; cited from earlier work.
Assay [3] concerns T-47D cell. The conditions noted are these: human derived breast cancer, compared with SK-BR-3; cited from earlier work.
Assay [4] deals with MCF7. The note with it: breast cancer cells MCF7; cited from earlier work.

“Nerve Growth Factor: Nerve Growth Factor (NGF), stimulant triggering neurite outgrowth in SHSY5Y cells”: in assay [1], the “expression of tyrosine hydroxylase” value is reported as “tyrosine hydroxylase was expressed”, the “extension of neuron projection” value was “caused extension of neuron projection” and the “neuron cell type formed” value is listed as “forms dopaminergic neuron cells”.
Regarding `COc1cccc2c1C(=O)c1c(O)c3c(c(O)c1C2=O)C[C@@](O)(C(=O)CO)C[C@@H]3O[C@H]1C[C@H](N)[C@H](O)[C@H](C)O1` [doxorubicin], the growth inhibition entry in assay [2] is recorded as “subjected to growth inhibition”. For the same compound, the DXR sensitivity entry in assay [3] is reported as “same DXR sensitivity as the SK-BR-3”. Moreover, the DXR resistance entry in assay [4] was “having DXR resistance”.

Source of the values: patent publication US20100210708A1, “COMPOUND PROFILING METHOD” (CYTOPATHFINDER, INC., priority 2007, published 2010).
